Reference: patent US20050042281A1, “Compositions for delivering therapeutic agents across the oral mucosa” (priority 2003, published 2005)

Experiments:
[1] = Membrane assay (parallel artificial membrane, effective permeability); details: for Papp: PAMPA
Description: (§1) This assay uses a lipid-coated membrane to predict lipid mucosal membrane penetration.
(§2) The membrane apparatus consists of a dodecane membrane sandwiched between a donor and acceptor cell.
(§3) Membrane assays were performed using oxycodone HCl solutions at a pH of 6.5, 9.5, and 10.0. The pH of the solutions was adjusted using a freshly prepared 0.01 M sodium bicarbonate—sodium carbonate buffer. Permeation was measured by determining the concentrations of oxycodone in the acceptor cell and is expressed as Pe (effective permeability in centimeters per second).

[2] = Extent of un-ionized form at a given pH, worked out from pKa; format: physicochemical
Excerpt: Conversion of the ionized form to the un-ionized form for basic agents is related to pH by the formula: pH=pKa +Log10 (Un-ionized concentration/Ionized concentration). When the pH is the same as the pKa, equimolar concentrations of the unionized form and ionized form exist. […] Similarly, when the pH is two units higher than the pKa, the ratio of un-ionized form to the ionized form is 100:1. As noted above, the un-ionized form is lipophilic and, therefore, more capable of passing through the mucous membranes than the ionized form, which is lipophobic in nature. Accordingly, increasing the pH of the saliva favors conversion of the ionized form into the un-ionized form for basic agents, and the final pH may be determined by making use of the above formula for any basic agent.

in vitro = details: PAMPA
Description: as §1, §2, §3

[3] = pH at which net charge is zero; cited from earlier work

Which results are given for `Cc1nccn1CC1CCc2c(c3ccccc3n2C)C1=O` (stereo not shown) [Ondansetron]?
increase of effective permeability ([1]; pH 8.5 relative to pH 5.4): > 1000%; increase of effective permeability ([1]; pH 8.5 relative to pH 7.4): more than 200%

For `COc1ccc2c3c1O[C@H]1C(=O)CC[C@@]4(O)[C@@H](C2)N(C)CC[C@]314` [Oxycodone, oxycodone], which un-ionized ([2]; at pH 9.9) is on record?
Its un-ionized is 99%.

What about the un-ionized ([2]; at pH 10.9) of the same compound?
The un-ionized was 100%.

What about the Papp ([1]; pH 6.5) of the same compound?
The Papp was 227 ×10⁻⁶ cm/s.

And the Papp ([1]; pH 9.5)?
Its Papp is 490 ×10⁻⁶ cm/s.

And the Papp ([1]; pH 10)?
The Papp was 554 ×10⁻⁶ cm/s.

For `CNS(=O)(=O)Cc1ccc2[nH]cc(CCN(C)C)c2c1` [Sumatriptan, sumatriptan], which un-ionized ([2]; at pH 10.5) is on record?
The un-ionized was 99%.

And the un-ionized ([2]; at pH 11.5)?
The un-ionized was 100%.

And the Papp (in vitro; pH 9)?
The Papp was 599 ×10⁻⁶ cm/s.

And the Papp (in vitro; pH 9.5)?
The Papp was 945 ×10⁻⁶ cm/s.

And the Papp (in vitro; pH 10)?
Its Papp is 1560 ×10⁻⁶ cm/s.

For `CN1CCC23c4c5ccc(O)c4OC2C(O)C=CC3C1C5` (stereo not shown) [morphine], which isoelectric point [3] is on record?
The isoelectric point was 9.1.
